From patent US10138227B2, “Heteroaryl substituted pyridines and methods of use” (AbbVie S.à.r.l., priority 2016, dated 2018) come the findings set out here.

The assay addresses T1, CFTR ΔF508 mutant (Homo sapiens, UniProt P13569, DEL508-508).
T1 construct: expressed in transfected cells; host or cells: CFBE41o- cells transduced with adenoviral vectors
Kind of assay: YFP-halide influx assay for the CFTR-ΔF508 mutation. It counts as cell-based. As to conditions: CFBE41o- cells expressing CFTR ΔF508 and YFP reporter, forskolin 10.67 μM; for EC50: (1-F/F0) vs concentration. From the text: The YFP halide influx assay measured the functionality of the cystic fibrosis Transmembrane Conductance regulator (CFTR) channels in the cystic fibrosis bronchial epithelium cell line CFBE41o-. The assay was used to evaluate the capacity of compounds to increase the open probability of existing CFTR channels in the membrane. It makes use of the observation that the yellow fluorescent protein (YFP) variant YFP H148Q, I152L, F47L has its fluorescence substantially quenched by halide ions like Cl^− and I^− (Galietta, L. J. V., Haggie, P. M., Verkman, A. S., 2001. Green fluorescent protein-based halide indicators with improved chloride and iodide affinities. FEBS Lett. 499, 220-224. doi:10.1016/S0014-5793(01)02561-3; Nagai, T., Ibata, K., Park, E. S., Kubota, M., Mikoshiba, K., Miyawaki, A., 2002. A variant of yellow fluorescent protein with fast and efficient maturation for cell-biological applications. Nat. Biotechnol. 20, 87-90. doi:10.1038/nbt0102-87).
For this purpose, CFBE410-cells were seeded in 384 well plates (3000 CFBE cells/well). One day after seeding, the CFBE cells were transduced with adenoviral vectors that direct the expression of the CFTR ΔF508 mutant and of the YFP reporter. Cells were incubated at 27° C., 5% CO2 for 24 hours so as to allow for the proper folding and migration to the membrane of the CFTR channel or treated with a CFTR modulator during 24 hours at 37° C.
The I-induced quenching of fluorescence was recorded on an immediately after injection of iodide for 2 minutes on an FDSS/μCell (Hamamatsu). The capacity of a compound to increase the channel opening was directly correlated with the decrease in fluorescence, and was expressed as (1-(fluorescence after 36 seconds (F)/fluorescence before injection (F0))) and an EC50 was derived from a (1-F/F0) vs compound concentration plot.

T1 sequence (P13569 with tags, fused parts or gaps DEL508-508): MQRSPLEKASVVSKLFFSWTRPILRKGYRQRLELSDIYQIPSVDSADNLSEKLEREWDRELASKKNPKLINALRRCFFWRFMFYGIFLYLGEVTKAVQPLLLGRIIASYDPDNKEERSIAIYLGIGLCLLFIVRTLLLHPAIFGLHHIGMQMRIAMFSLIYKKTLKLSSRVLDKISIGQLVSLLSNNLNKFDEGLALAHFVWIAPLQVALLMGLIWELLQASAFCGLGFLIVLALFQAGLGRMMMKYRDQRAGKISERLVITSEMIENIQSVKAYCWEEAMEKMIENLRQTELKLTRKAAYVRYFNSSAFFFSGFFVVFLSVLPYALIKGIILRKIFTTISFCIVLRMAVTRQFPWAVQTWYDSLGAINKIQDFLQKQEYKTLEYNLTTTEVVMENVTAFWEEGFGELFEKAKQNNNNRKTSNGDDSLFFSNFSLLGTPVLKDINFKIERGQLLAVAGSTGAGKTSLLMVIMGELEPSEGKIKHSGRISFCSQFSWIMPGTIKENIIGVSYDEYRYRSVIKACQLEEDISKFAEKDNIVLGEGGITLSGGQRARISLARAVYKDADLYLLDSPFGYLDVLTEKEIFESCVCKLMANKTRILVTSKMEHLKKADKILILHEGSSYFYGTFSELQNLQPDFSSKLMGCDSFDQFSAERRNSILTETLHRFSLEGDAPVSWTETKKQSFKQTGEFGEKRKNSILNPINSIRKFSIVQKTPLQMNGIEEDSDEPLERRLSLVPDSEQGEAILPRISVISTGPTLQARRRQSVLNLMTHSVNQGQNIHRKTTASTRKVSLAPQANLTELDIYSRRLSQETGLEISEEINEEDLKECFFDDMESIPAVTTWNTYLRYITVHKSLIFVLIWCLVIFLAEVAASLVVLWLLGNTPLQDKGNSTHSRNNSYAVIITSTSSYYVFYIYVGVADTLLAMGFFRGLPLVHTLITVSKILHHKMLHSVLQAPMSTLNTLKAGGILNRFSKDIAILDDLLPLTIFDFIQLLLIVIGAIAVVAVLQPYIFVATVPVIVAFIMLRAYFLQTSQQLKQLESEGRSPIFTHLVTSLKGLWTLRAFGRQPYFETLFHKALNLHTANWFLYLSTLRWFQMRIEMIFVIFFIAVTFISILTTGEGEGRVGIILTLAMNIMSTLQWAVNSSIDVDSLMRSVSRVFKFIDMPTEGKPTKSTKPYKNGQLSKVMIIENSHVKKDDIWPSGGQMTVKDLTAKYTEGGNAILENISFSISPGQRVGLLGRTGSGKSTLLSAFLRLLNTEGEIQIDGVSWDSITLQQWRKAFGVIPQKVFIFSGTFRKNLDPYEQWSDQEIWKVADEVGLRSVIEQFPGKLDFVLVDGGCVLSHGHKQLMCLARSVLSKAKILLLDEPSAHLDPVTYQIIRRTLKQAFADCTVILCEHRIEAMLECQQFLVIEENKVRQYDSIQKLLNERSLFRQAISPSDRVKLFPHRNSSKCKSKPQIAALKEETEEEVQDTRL

Regarding `Nc1cc(S(=O)(=O)c2ccc(OC(F)(F)F)cc2)cnc1-c1nnco1` [Compound 6, 2-(1,3,4-oxadiazol-2-yl)-5-[4-(trifluoromethoxy)benzene-1-sulfonyl]pyridin-3-amine], the “% Activation” value amounted to 86.03% and the EC50 is 78.1 nM. The matching figures for `Nc1cc(S(=O)(=O)c2ccc(C(F)(F)F)cc2)cnc1-c1nnc(CO)o1` [Compound 7, (5-{3-amino-5-[4-(trifluoromethyl)benzene-1-sulfonyl]pyridin-2-yl}-1,3,4-oxadiazol-2-yl)methanol]: 109.69% and 5.8 nM. The like results for `NC(=O)c1nnc(-c2ncc(S(=O)(=O)c3ccc(OC(F)(F)F)cc3)cc2N)o1` [Compound 8, 5-{3-amino-5-[4-(trifluoromethoxy)benzene-1-sulfonyl]pyridin-2-yl}-1,3,4-oxadiazole-2-carboxamide] were, in that order, 93.73% and 300 nM. For the compound `Nc1cc(S(=O)(=O)c2ccc(F)cc2)cnc1-c1nnc(CO)o1` [Compound 9, {5-[3-amino-5-(4-fluorobenzene-1-sulfonyl)pyridin-2-yl]-1,3,4-oxadiazol-2-yl}methanol], the “% Activation” value stood at 104.65% and the concentration for a half-maximal effect (EC50) amounted to 96.7 nM. In the case of `Nc1cc(S(=O)(=O)c2ccc(OC(F)(F)F)cc2)cnc1-c1nnc(C2CCCCC2)o1` [Compound 10, 2-(5-cyclohexyl-1,3,4-oxadiazol-2-yl)-5-[4-(trifluoromethoxy)benzene-1-sulfonyl]pyridin-3-amine], the “% Activation” value was found to be 106.5% and the EC50 is 14.9 nM. Regarding `CO[C@@H](c1ccccc1)c1nnc(-c2ncc(S(=O)(=O)c3ccc(OC(F)(F)F)cc3)cc2N)o1` [Compound 11, 2-{5-[(S)-methoxy(phenyl)methyl]-1,3,4-oxadiazol-2-yl}-5-[4-(trifluoromethoxy)benzene-1-sulfonyl]pyridin-3-amine], the “% Activation” value was determined as 109.82% and the EC50 stood at 35.1 nM. The like results for `Nc1cc(S(=O)(=O)c2ccc(OC(F)(F)F)cc2)cnc1-c1nnc(COCC2CC2)o1` [Compound 12, 2-{5-[(cyclopropylmethoxy)methyl]-1,3,4-oxadiazol-2-yl}-5-[4-(trifluoromethoxy)benzene-1-sulfonyl]pyridin-3-amine] were, in that order, 100.38% and 8.52 nM.

Turning to `Nc1cc(S(=O)(=O)c2ccc(OC(F)(F)F)cc2)cnc1-c1nnc(COc2ccccc2)o1` [Compound 13, 2-[5-(phenoxymethyl)-1,3,4-oxadiazol-2-yl]-5-[4-(trifluoromethoxy)benzene-1-sulfonyl]pyridin-3-amine], the “% Activation” value was determined as 100.57% and the EC50 worked out at 327 nM. The like results for `Nc1cc(S(=O)(=O)c2ccc(OC(F)(F)F)cc2)cnc1-c1nnc(COC2CCCC2)o1` [Compound 14, 2-{5-[(cyclopentyloxy)methyl]-1,3,4-oxadiazol-2-yl}-5-[4-(trifluoromethoxy)benzene-1-sulfonyl]pyridin-3-amine] were, in that order, 116.8% and 67.9 nM. On to `Nc1cc(S(=O)(=O)c2ccc(OC(F)(F)F)cc2)cnc1-c1nnc(COC(F)(F)F)o1` [Compound 15, 5-[4-(trifluoromethoxy)benzene-1-sulfonyl]-2-{5-[(trifluoromethoxy)methyl]-1,3,4-oxadiazol-2-yl}pyridin-3-amine], for which the “% Activation” value amounted to 113.65% and the EC50 is 6.94 nM. On to `Nc1cc(S(=O)(=O)c2ccc(OC(F)(F)F)cc2)cnc1-c1nnc(COC2CCOC2)o1` (centres unmarked) [Compound 16, 2-(5-{[(oxolan-3-yl)oxy]methyl}-1,3,4-oxadiazol-2-yl)-5-[4-(trifluoromethoxy)benzene-1-sulfonyl]pyridin-3-amine], for which the “% Activation” value was determined as 110.75% and the midpoint of the response, the EC50, lay at 78.1 nM. The matching figures for `COCCOCc1nnc(-c2ncc(S(=O)(=O)c3ccc(OC(F)(F)F)cc3)cc2N)s1` [Compound 17, 2-{5-[(2-methoxyethoxy)methyl]-1,3,4-thiadiazol-2-yl}-5-[4-(trifluoromethoxy)benzene-1-sulfonyl]pyridin-3-amine]: 117.3% and 11.4 nM. `Nc1cc(S(=O)(=O)c2ccc(OC(F)(F)F)cc2)cnc1-c1nnc(CNC(=S)C2CC2)s1` [Compound 18, N-[(5-{3-amino-5-[4-(trifluoromethoxy)benzene-1-sulfonyl]pyridin-2-yl}-1,3,4-thiadiazol-2-yl)methyl]cyclopropanecarbothioamide]: the “% Activation” value is listed as 106.2% and the EC50 worked out at 9.09 nM. Regarding `CO[C@@H](c1ccccc1)c1nnc(-c2ncc(S(=O)(=O)c3ccc(OC(F)(F)F)cc3)cc2N)s1` [Compound 19, 2-{5-[(S)-methoxy(phenyl)methyl]-1,3,4-thiadiazol-2-yl}-5-[4-(trifluoromethoxy)benzene-1-sulfonyl]pyridin-3-amine], the “% Activation” value is given as 97.54% and a half-maximal response (EC50) required 350 nM. The like results for `C[C@@](O)(c1nnc(-c2ncc(S(=O)(=O)c3ccc(OC(F)(F)F)cc3)cc2N)s1)C(F)(F)F` [Compound 20, (2S)-2-(5-{3-amino-5-[4-(trifluoromethoxy)benzene-1-sulfonyl]pyridin-2-yl}-1,3,4-thiadiazol-2-yl)-1,1,1-trifluoropropan-2-ol] were, in that order, 97.45% and 8.12 nM. For `CO[C@H](C)c1nnc(-c2ncc(S(=O)(=O)c3ccc(OC(F)(F)F)cc3)cc2N)s1` [Compound 21, 2-{5-[(1R)-1-methoxyethyl]-1,3,4-thiadiazol-2-yl}-5-[4-(trifluoromethoxy)benzene-1-sulfonyl]pyridin-3-amine], the “% Activation” value came out at 109.42% and a half-maximal effect (EC50) was put at 8.54 nM. The matching figures for `COC(C)c1nnc(-c2ncc(S(=O)(=O)c3ccc(OC(F)(F)F)cc3)cc2N)s1` (centres unmarked) [Compound 22, 2-[5-(1-methoxyethyl)-1,3,4-thiadiazol-2-yl]-5-[4-(trifluoromethoxy)benzene-1-sulfonyl]pyridin-3-amine]: 112.9% and 15.2 nM. Regarding `CO[C@@H](C)c1nnc(-c2ncc(S(=O)(=O)c3ccc(OC(F)(F)F)cc3)cc2N)s1` [Compound 23, 2-{5-[(1S)-1-methoxyethyl]-1,3,4-thiadiazol-2-yl}-5-[4-(trifluoromethoxy)benzene-1-sulfonyl]pyridin-3-amine], the “% Activation” value is listed as 100.92% and it took 37.1 nM to reach a half-maximal effect (EC50). The like results for `Nc1cc(S(=O)(=O)c2ccc(OC(F)(F)F)cc2)cnc1-c1nnc(COCC2CC2)s1` [Compound 24, 2-{5-[(cyclopropylmethoxy)methyl]-1,3,4-thiadiazol-2-yl}-5-[4-(trifluoromethoxy)benzene-1-sulfonyl]pyridin-3-amine] were, in that order, 100.82% and 13.7 nM. Consider `CCOCc1nnc(-c2ncc(S(=O)(=O)c3ccc(OC(F)(F)F)cc3)cc2N)s1` [Compound 25, 2-[5-(ethoxymethyl)-1,3,4-thiadiazol-2-yl]-5-[4-(trifluoromethoxy)benzene-1-sulfonyl]pyridin-3-amine], for which the “% Activation” value is recorded as 104.42% and the EC50 is 4.4 nM.

In the case of `COCc1nnc(-c2ncc(S(=O)(=O)c3ccc(OC(F)(F)F)cc3)cc2N)s1` [Compound 26, 2-[5-(methoxymethyl)-1,3,4-thiadiazol-2-yl]-5-[4-(trifluoromethoxy)benzene-1-sulfonyl]pyridin-3-amine], the “% Activation” value is listed as 101.69% and the concentration for a half-maximal effect (EC50) came to 3.33 nM. As to `Nc1cc(S(=O)(=O)c2ccc(OC(F)(F)F)cc2)cnc1-c1nnc(COc2cccnc2)s1` [Compound 27, 2-(5-{[(pyridin-3-yl)oxy]methyl}-1,3,4-thiadiazol-2-yl)-5-[4-(trifluoromethoxy)benzene-1-sulfonyl]pyridin-3-amine], the “% Activation” value was 96.45% and the response was half-maximal at 151 nM (EC50). Consider `Nc1cc(S(=O)(=O)c2ccc(OC(F)(F)F)cc2)cnc1-c1nnc(COC(F)(F)F)s1` [Compound 28, 5-[4-(trifluoromethoxy)benzene-1-sulfonyl]-2-{5-[(trifluoromethoxy)methyl]-1,3,4-thiadiazol-2-yl}pyridin-3-amine], for which the “% Activation” value stood at 50.3%. Take `Nc1cc(S(=O)(=O)c2ccc(OC(F)(F)F)cc2)cnc1-c1nnc(COC2CCOC2)s1` (centres unmarked) [Compound 29, 2-(5-{[(oxolan-3-yl)oxy]methyl}-1,3,4-thiadiazol-2-yl)-5-[4-(trifluoromethoxy)benzene-1-sulfonyl]pyridin-3-amine]: the “% Activation” value is given as 102.9% and the response was half-maximal at 16 nM (EC50).

Broadly, the EC50 is the concentration needed to bring the measured effect to its halfway point. Read a low EC50 as higher potency in that assay.
